# Laboratory results: patent publication US20220089575A1, “FARNESOID X RECEPTOR AGONISTS AND USES THEREOF” (Metacrine, Inc., priority 2017, published 2022)
# Biological target: T1, hFXR (Homo sapiens, UniProt Q96RI1)
# T1 construct: expressed in transfected cells; host or cells: CV-1 cells
# T1 sequence (Q96RI1 1-486): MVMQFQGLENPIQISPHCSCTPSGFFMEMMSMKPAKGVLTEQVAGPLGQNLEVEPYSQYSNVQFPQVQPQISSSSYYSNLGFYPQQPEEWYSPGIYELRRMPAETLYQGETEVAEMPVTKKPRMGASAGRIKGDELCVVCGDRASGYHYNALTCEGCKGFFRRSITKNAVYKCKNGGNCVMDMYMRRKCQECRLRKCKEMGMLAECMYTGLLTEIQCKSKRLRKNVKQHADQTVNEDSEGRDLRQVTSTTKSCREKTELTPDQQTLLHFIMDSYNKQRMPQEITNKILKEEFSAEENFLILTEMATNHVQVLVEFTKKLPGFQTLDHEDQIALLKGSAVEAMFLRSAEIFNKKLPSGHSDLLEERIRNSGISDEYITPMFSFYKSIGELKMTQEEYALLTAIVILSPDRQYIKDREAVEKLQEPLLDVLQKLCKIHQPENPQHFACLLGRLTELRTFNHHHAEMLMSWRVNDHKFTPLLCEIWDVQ
# T1 sequence (P19793 1-462 partner): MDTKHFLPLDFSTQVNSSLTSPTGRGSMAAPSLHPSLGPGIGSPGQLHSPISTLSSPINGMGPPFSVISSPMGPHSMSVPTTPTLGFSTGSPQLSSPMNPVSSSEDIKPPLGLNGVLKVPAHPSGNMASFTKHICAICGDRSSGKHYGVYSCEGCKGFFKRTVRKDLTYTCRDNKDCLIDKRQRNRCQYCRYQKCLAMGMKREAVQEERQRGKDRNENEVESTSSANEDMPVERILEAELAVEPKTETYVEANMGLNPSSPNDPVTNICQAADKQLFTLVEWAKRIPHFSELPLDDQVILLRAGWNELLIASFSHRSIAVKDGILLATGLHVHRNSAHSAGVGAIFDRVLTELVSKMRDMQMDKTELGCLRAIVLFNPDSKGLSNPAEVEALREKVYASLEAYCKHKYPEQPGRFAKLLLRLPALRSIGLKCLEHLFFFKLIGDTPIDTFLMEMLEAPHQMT
# Assay: In Vitro FXR Assay (TK): TK-ECRE-luc reporter in transfected CV-1 cells
# Assay type: cell-based
# Conditions: 18 hrs, luminescence, maximum efficacy of <25% of the Fexarmine control classified as '+'
# How it was run: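 Cells are seeded in charcoal double-stripped FBS medium, transfected overnight with FXR/RXR expression and ECRE-driven luciferase reporter plasmids, then treated with serially diluted compounds for 18 h. Lysates are measured for luciferase light output.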
row,EC50,Structure (SMILES)
1,≥ 1000 nM,"CCCCCOC(=O)[C@H]1CC[C@H](C(=O)N(C[C@H]2CC[C@H](c3ccc(OC)c(C)c3)CC2)c2cccc(-c3cnn(C4CC4)c3)c2)CC1 [Compound 22.03, trans-Pentyl 4-((3-(1-cyclopropyl-1H-pyrazol-4-yl)phenyl)((trans-4-(4-methoxy-3-methylphenyl)cyclohexyl)methyl)carbamoyl) cyclohexanecarboxylate]"
2,≤ 250 nM,"COc1ccc([C@H]2CC[C@H](CN(c3cccc(-c4cnn(C5CC5)c4)c3)C(=O)[C@H]3CC[C@H](C(=O)OCC(C)C)CC3)CC2)cc1C [Compound 22.04, trans-Isobutyl 4-((3-(1-cyclopropyl-1H-pyrazol-4-yl)phenyl)((trans-4-(4-methoxy-3-methylphenyl)cyclohexyl)methyl)carbamoyl) cyclohexanecarboxylate]"
3,250 to 1000 nM,"COc1ccc([C@H]2CC[C@H](CN(c3cccc(-c4cnn(C5CC5)c4)c3)C(=O)[C@H]3CC[C@H](C(=O)OCCC(C)C)CC3)CC2)cc1C [Compound 22.05, trans-Isopentyl 4-((3-(1-cyclopropyl-1H-pyrazol-4-yl)phenyl)((trans-4-(4-methoxy-3-methylphenyl)cyclohexyl)methyl)carbamoyl) cyclohexanecarboxylate]"
4,250 to 1000 nM,"CCCOC(=O)[C@H]1CC[C@H](C(=O)N(C[C@H]2CC[C@H](c3ccc(OC)c(C)n3)CC2)c2cc(-c3cnn(C4CC4)c3)ccn2)CC1 [Compound 22.06, trans-Propyl 4-((4-(1-cyclopropyl-1H-pyrazol-4-yl)pyridin-2-yl)((trans-4-(5-methoxy-6-methylpyridin-2-yl)cyclohexyl)methyl)carbamoyl) cyclohexanecarboxylate]"
5,250 to 1000 nM,"COc1ccc([C@H]2CC[C@H](CN(c3cccc(-c4cnn(C5CC5)c4)c3)C(=O)[C@H]3CC[C@H](C(=O)NCCO)CC3)CC2)cc1C [Compound 23, trans-N^1-(3-(1-Cyclopropyl-1H-pyrazol-4-yl)phenyl)-N^4-(2-hydroxyethyl)-N^1-((trans-4-(4-methoxy-3-methylphenyl)cyclohexyl)methyl)cyclohexane-1,4-dicarboxamide]"
6,≤ 250 nM,"CNC(=O)[C@H]1CC[C@H](C(=O)N(C[C@H]2CC[C@H](c3ccc(OC)c(C)c3)CC2)c2cccc(-c3cnc(OC)s3)c2)CC1 [Compound 24, trans-N^1-((trans-4-(4-Methoxy-3-methylphenyl)cyclohexyl)methyl)-N^1-(3-(2-methoxythiazol-5-yl)phenyl)-M-methylcyclohexane-1,4-dicarboxamide]"
7,≤ 250 nM,"COc1ncc(-c2cccc(N(C[C@H]3CC[C@H](c4ccc(OC)c(C)c4)CC3)C(=O)[C@H]3CC[C@H](C(N)=O)CC3)c2)s1 [Compound 24.01, trans-N^1-((trans-4-(4-Methoxy-3-methylphenyl)cyclohexyl)methyl)-N^1-(3-(2-methoxythiazol-5-yl)phenyl)cyclohexane-1,4-dicarboxamide]"
8,≤ 250 nM,"COc1ncc(-c2cccc(N(C[C@H]3CC[C@H](c4ccc(OC)c(C)c4)CC3)C(=O)[C@H]3CC[C@H](C(=O)N(C)C)CC3)c2)s1 [Compound 24.02, trans-N^1-((trans-4-(4-Methoxy-3-methylphenyl)cyclohexyl)methyl)-N^1-(3-(2-methoxythiazol-5-yl)phenyl)-N^4,N^4-dimethylcyclohexane-1,4-dicarboxamide]"
9,≤ 250 nM,COc1ncc(-c2cccc(N(C[C@H]3CC[C@H](c4ccc(OC)c(C)c4)CC3)C(=O)[C@H]3CC[C@H](C(=O)NCCO)CC3)c2)s1 [Compound 24.03]
10,≤ 250 nM,"COCCNC(=O)[C@H]1CC[C@H](C(=O)N(C[C@H]2CC[C@H](c3ccc(OC)c(C)c3)CC2)c2cccc(-c3cnc(OC)s3)c2)CC1 [Compound 24.04, trans-N^1-((trans-4-(4-Methoxy-3-methylphenyl)cyclohexyl)methyl)-N^4-(2-methoxyethyl)-N^1-(3-(2-methoxythiazol-5-yl)phenyl) cyclohexane-1,4-dicarboxamide]"
11,250 to 1000 nM,"COc1ncc(-c2cccc(N(C[C@H]3CC[C@H](c4ccc(OC)c(C)c4)CC3)C(=O)[C@H]3CC[C@H](C(=O)NCCN(C)C)CC3)c2)s1 [Compound 24.05, trans-N^1-(2-(Dimethylamino)ethyl)-N^4-((trans-4-(4-methoxy-3-methylphenyl)cyc1ohexyl)methyl)-N^4-(3-(2-methoxythiazol-5-yl)phenyl)cyclohexane-1,4-dicarboxamide]"
12,≤ 250 nM,"COc1ncc(-c2cccc(N(C[C@H]3CC[C@H](c4ccc(OC)c(C)c4)CC3)C(=O)[C@H]3CC[C@H](C(=O)NS(C)(=O)=O)CC3)c2)s1 [Compound 24.06, trans-N^1-((trans-4-(4-Methoxy-3-methylphenyl)cyclohexyl)methyl)-N^1-(3-(2-methoxythiazol-5-yl)phenyl)-N^4-(methylsulfonyl) cyclohexane-1,4-dicarboxamide]"
13,≤ 250 nM,"COC(=O)N[C@H]1CC[C@H](C(=O)N(C[C@H]2CC[C@H](c3ccc(OC)c(C)c3)CC2)c2cccc(-c3cnc(C4CC4)s3)c2)CC1 [Compound 25, Methyl (trans-4-((3-(2-cyclopropylthiazol-5-yl)phenyl)((trans-4-(4-methoxy-3-methylphenyl)cyclohexyl)methyl)carbamoyl)cyclohexyl)carbamate]"
14,250 to 1000 nM,"COc1ncc(-c2cccc(N(C[C@H]3CC[C@H](c4ccc(OC)c(C)c4)CC3)C(=O)[C@H]3CC[C@H](NC(=O)OC(C)(C)C)CC3)c2)s1 [Compound 25.01, tert-Butyl (trans-4-(((trans-4-(4-methoxy-3-methylphenyl)cyclohexyl)methyl)(3-(2-methoxythiazol-5-yl)phenyl)carbamoyl)cyclohexyl)carbamate]"
15,250 to 1000 nM,"COc1ncc(-c2cccc(N(C[C@H]3CC[C@H](c4ccc(OC)c(C)c4)CC3)C(=O)[C@H]3CC[C@H](CNC(=O)OC(C)(C)C)CC3)c2)s1 [Compound 25.02, tert-Butyl ((trans-4-(((trans-4-(4-methoxy-3-methylphenyl)cyclohexyl)methyl)(3-(2-methoxythiazol-5-yl)phenyl)carbamoyl)cyclohexyl)methyl)carbamate]"
16,≥ 1000 nM,"COc1ncc(-c2cccc(N(C[C@H]3CC[C@H](c4ccc(OC)c(C)c4)CC3)C(=O)[C@H]3CC[C@H](CN)CC3)c2)s1 [Compound 25.03, trans-4-(Aminomethyl)-N-((trans-4-(4-methoxy-3-methylphenyl)cyclohexyl)methyl)-N-(3-(2-methoxythiazol-5-yl)phenyl)cyclohexanecarboxamide]"
17,≤ 250 nM,"COc1ncc(-c2cccc(N(C[C@H]3CC[C@H](c4ccc(OC)c(C)c4)CC3)C(=O)[C@H]3CC[C@H](NC(C)=O)CC3)c2)s1 [Compound 25.04, trans-4-Acetamido-N-((trans-4-(4-methoxy-3-methylphenyl)cyclohexyl)methyl)-N-(3-(2-methoxythiazol-5-yl)phenyl)cyclohexanecarboxamide]"
18,≤ 250 nM,"COC(=O)N[C@H]1CC[C@H](C(=O)N(C[C@H]2CC[C@H](c3ccc(OC)c(C)c3)CC2)c2cccc(-c3cnc(OC)s3)c2)CC1 [Compound 25.05, Methyl (trans-4-(((trans-4-(4-methoxy-3-methylphenyl)cyclohexyl)methyl)(3-(2-methoxythiazol-5-yl)phenyl)carbamoyl)cyclohexyl) carbamate]"
19,≤ 250 nM,"COc1ncc(-c2cccc(N(C[C@H]3CC[C@H](c4ccc(OC)c(C)c4)CC3)C(=O)[C@H]3CC[C@H](CNC(C)=O)CC3)c2)s1 [Compound 25.06, trans-4-(Acetamidomethyl)-N-((trans-4-(4-methoxy-3-methylphenyl)cyclohexyl)methyl)-N-(3-(2-methoxythiazol-5-yl)phenyl)cyclohexanecarboxamide]"
20,≤ 250 nM,"COC(=O)NC[C@H]1CC[C@H](C(=O)N(C[C@H]2CC[C@H](c3ccc(OC)c(C)c3)CC2)c2cccc(-c3cnc(OC)s3)c2)CC1 [Compound 25.07, Methyl ((trans-4-(((trans-4-(4-methoxy-3-methylphenyl)cyclohexyl)methyl)(3-(2-methoxythiazol-5-yl)phenyl)carbamoyl)cyclohexyl)methyl)carbamate]"
21,≤ 250 nM,"COc1ncc(-c2cccc(N(C[C@H]3CC[C@H](c4ccc(OC)c(C)c4)CC3)C(=O)[C@H]3CC[C@H](CNS(C)(=O)=O)CC3)c2)s1 [Compound 25.08, trans-N-((trans-4-(4-Methoxy-3-methylphenyl)cyclohexyl)methyl)-N-(3-(2-methoxythiazol-5-yl)phenyl)-4-(methylsulfonamidomethyl) cyclohexanecarboxamide]"
